Experimental data reported in patent US20080207665A1, “Alpha-(Aryl-or Heteroaryl-Methyl)-Beta-Piperidinopropanoic Acid Compounds as Orl-1-Receptor Antagonists” (Pfizer Inc., priority 2005, published 2008).
pKi: −log10 of the molar value.

Legend:
HERG potassium channel = molecular target: T1, HERG potassium channel (Homo sapiens, UniProt Q12809); assay type: binding
T1 construct: expressed in transfected cells; host or cells: HEK-293
Description: Cell paste of HEK-293 cells expressing the HERG product was suspended in 10-fold volume of 50 mM Tris buffer adjusted at pH 7.5 at 25° C. with 2 M HCl containing 1 mM MgCl2, 10 mM KCl. The cells were homogenized using a Polytron homogenizer (at the maximum power for 20 seconds) and centrifuged at 48,000 g for 20 minutes at 4° C. The pellet was resuspended, homogenized and centrifuged once more in the same manner. The resultant supernatant was discarded and the final pellet was resuspended (10-fold volume of 50 mM Tris buffer) and homogenized at the maximum power for 20 seconds. The membrane homogenate was aliquoted and stored at −80° C. until use. An aliquot was used for protein concentration determination using a Protein Assay Rapid Kit and ARVO SX plate reader (Wallac). […] Saturation was determined by incubating 20 μl of [^3H]-dofetilide and 160 μl of membrane homogenates (20-30 μg protein per well) for 60 min at room temperature in the absence or presence of 10 μM dofetilide at final concentrations (20 μl) for total or nonspecific binding, respectively. […] Receptor-bound radioactivity was quantified by liquid scintillation counting using Packard LS counter.
For the competition assay, compounds were diluted in 96 well polypropylene plates as 4-point dilutions in semi-log format. […] Receptor-bound radioactivity was quantified by counting Wallac MicroBeta plate counter.

human ORL1 receptor = molecular target: T2, human ORL1 receptor (Homo sapiens, UniProt P41146); assay: ORL1-receptor binding assay ([3H]nociceptin, SPA); conditions: human ORL1 receptor transfected HEK-293 cell membranes, 0.4 nM [3H]nociceptin
T2 construct: purchased PerkinElmer; host or cells: HEK-293
T2 sequence (P41146 whole entry): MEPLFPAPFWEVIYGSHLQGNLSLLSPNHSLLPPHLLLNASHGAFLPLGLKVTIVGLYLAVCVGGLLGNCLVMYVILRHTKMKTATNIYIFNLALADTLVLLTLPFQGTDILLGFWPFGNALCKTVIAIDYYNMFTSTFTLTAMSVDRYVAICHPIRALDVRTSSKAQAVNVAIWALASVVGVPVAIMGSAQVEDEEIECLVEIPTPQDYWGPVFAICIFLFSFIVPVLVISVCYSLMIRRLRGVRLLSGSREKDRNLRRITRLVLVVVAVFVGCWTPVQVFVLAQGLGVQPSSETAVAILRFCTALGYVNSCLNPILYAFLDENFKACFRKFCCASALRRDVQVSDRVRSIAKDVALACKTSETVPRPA
Description: The human ORL1 receptor transfected HEK-293 cell membranes (PerkinElmer) were incubated for 45 min at room temperature with 0.4 nM [^3H]nociceptin, 1.0 mg of wheat germ agglutinin(WGA)-coated SPA beads and various concentrations of test compounds in a final volume of 200 μL of 50 mM HEPES buffer pH 7.4 containing 10 mM MgCl2 and 1 mM EDTA. Non-specific binding (NSB) was determined by the addition of 1 μM unlabeled nociceptin. After the reaction, the assay plate was centrifuged at 1,000 rpm for 1 min and then the radioactivity was measured by WALLAC 1450 MicroBeta Trilux.
The compounds of the examples were tested in the ORL1 Receptor Binding assay.

T1 sequence (Q12809 whole entry): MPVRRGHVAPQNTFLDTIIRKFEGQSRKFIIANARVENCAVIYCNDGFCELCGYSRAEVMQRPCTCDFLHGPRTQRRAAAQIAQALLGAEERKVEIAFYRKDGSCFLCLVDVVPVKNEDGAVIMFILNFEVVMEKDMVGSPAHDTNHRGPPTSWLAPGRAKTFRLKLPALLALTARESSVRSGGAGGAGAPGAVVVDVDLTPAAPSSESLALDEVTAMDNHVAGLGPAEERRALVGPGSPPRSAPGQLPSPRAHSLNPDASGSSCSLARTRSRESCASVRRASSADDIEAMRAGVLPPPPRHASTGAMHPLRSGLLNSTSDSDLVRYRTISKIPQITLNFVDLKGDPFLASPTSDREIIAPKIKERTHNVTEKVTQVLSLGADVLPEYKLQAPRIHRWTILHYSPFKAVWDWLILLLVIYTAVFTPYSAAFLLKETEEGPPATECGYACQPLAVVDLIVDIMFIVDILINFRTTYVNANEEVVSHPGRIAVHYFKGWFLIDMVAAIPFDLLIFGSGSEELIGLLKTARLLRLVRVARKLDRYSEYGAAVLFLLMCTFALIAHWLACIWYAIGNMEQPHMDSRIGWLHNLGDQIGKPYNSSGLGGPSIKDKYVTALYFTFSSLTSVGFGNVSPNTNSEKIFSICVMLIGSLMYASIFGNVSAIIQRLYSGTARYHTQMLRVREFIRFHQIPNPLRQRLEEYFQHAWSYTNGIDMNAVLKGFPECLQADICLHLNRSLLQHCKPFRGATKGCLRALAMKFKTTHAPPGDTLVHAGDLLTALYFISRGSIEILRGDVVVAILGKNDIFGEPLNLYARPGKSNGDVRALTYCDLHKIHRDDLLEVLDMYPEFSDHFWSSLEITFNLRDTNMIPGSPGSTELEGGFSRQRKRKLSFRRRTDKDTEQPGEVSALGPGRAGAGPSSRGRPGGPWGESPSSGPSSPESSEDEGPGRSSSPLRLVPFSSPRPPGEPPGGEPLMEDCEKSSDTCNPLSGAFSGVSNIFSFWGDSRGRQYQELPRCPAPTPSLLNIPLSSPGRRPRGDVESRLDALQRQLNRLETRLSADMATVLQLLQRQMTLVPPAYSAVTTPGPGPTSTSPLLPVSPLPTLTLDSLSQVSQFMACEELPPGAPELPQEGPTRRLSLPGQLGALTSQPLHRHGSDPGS

Structure (SMILES) | activity in the dofetilide binding assay (HERG potassium channel) | predicted HERG potassium channel inhibitory activity (HERG potassium channel) | pKi (human ORL1 receptor)
CN1C(=O)C(CN2CCC3(CCc4ccccc43)CC2)Cc2ccccc21 (stereo not drawn) [Compound (i)] | potent activity | high | 
O=C(O)C(Cc1ccccc1Cl)CN1C2CCC1CC1(C2)OCCc2cc(F)ccc21 (stereo not drawn) [Example 7, 2-(2-Chlorobenzyl)-3-(6′-fluoro-3′,4′-dihydro-8H-spiro[8-azabicyclo[3.2.1]octane-3,1′-isochromen]-8-yl)propanoic acid] |  |  | 8.89
O=C(O)C(Cc1ccccc1Cl)CN1C2CCC1CC1(C2)OCc2ccc(F)cc21 (stereo not drawn) [Example 8, 2-(2-Chlorobenzyl)-3-(6′-fluoro-3′H,8H-spiro[8-azabicyclo[3.2.1]octane-3,1′-[2]benzofuran]-8-yl)propanoic acid] |  |  | 8.47
O=C(O)C(Cc1cc(O)ccc1Cl)CN1C2CCC1CC1(C2)OCCc2cc(F)ccc21 (stereo not drawn) [Example 9, 2-(2-Chloro-5-hydroxybenzyl)-3-(6′-fluoro-3′,4′-dihydro-8H-spiro[8-azabicyclo[3.2.1]octane-3,1′-isochromen]-8-yl)propanoic acid] |  |  | 8.92
O=C(O)C(Cc1cc(O)ccc1Cl)CN1C2CCC1CC1(C2)OCc2ccc(F)cc21 (stereo not drawn) [Example 10, 2-(2-Chloro-5-hydroxybenzyl)-3-(6′-fluoro-3′H,8H-spiro[8-azabicyclo[3.2.1]octane-3,1′-[2]benzofuran]-8-yl)propanoic acid] |  |  | 8.48
